{
  "source": "patent US20040126823A1",
  "about": "“Modulation of prostaglandin synthesis and cancer growth” (priority 2002, published 2004)",
  "test_system": "Tpl2+/+ macrophages",
  "test": "PGE2 levels in LPS treated macrophages (ELISA of culture supernatants)",
  "type": "cell-based, mouse",
  "details": "pre-treatment with 20 pM PD98059; Tpl2+/+ macrophages stimulated for 4.5 hrs with LPS",
  "procedure": "Tpl2+/+ and Tpl2−/− macrophage cultures were stimulated with […] LPS. Culture supernatants collected at 0, 3, 4.5, 6 or 10 hrs were analysed for PGE2 levels by ELISA. Unstimulated Tpl2+/+ and Tpl2−/− macrophage cultures secreted similar levels of PGE2 respectively. PGE2 levels produced by unstimulated cells were given the arbitrary value of 1. The bar graphs show the fold induction of PGE2 (±SD) compared to control untreated cultures.",
  "data": [
    {"molecule": "COc1cccc(-c2cc(=O)c3ccccc3o2)c1N", "note": "[PD98059]", "values": [
      {"measurement": "PGE2 secretion", "result": "inhibited PGE2 secretion"}
    ]}
  ]
}
